Laboratory results taken from article PMC7076669 (Pharmaceutics, 2020).
≈ marks a conversion by molar mass, not a printed value. Where two headings read alike, the source gives them in different places.

Legend:
[1] = Visual solubility of ibuprofen in liquid excipients; format: physicochemical; conditions: for Ibuprofen Solubility in Excipient: visual solubility
Protocol: In this method, the excipients were accurately weighed (2.5 g) in individually-labelled 20 mL scintillation vials. […] Further, the vials were placed in a shaking water bath (Fisher Scientific, Waltham, MA, USA) maintained at 25 °C for at least 15 min to allow proper mixing.

[2] = cited from earlier work
[3] = in MCT 70 (medium chain triglycerides), 25 °C
[4] = in oleyl alcohol (Kollicream OA), 25 °C
[5] = in propylene glycol (Kollicream PG), 25 °C

**Q.** For `CC(C)Cc1ccc(C(C)C(=O)O)cc1` (stereo not drawn) [Ibuprofen, α-methyl-4-(2-methylpropyl) benzeneacetic acid], which “Ibuprofen solubility, Percentage” value ([1]; in Kolliphor PS 80, 25 °C) is on record?
**A.** Its value is 18%.

**Q.** And the “Ibuprofen Solubility in Excipient” value ([1]; in Kolliphor PS 80, 25 °C)?
**A.** The value was 180 mg/g.

**Q.** And the “Ibuprofen solubility, Percentage” value [1, 3]?
**A.** The value was 14%.

**Q.** And the “Ibuprofen Solubility in Excipient” value [1, 3]?
**A.** The value was 140 mg/g.

**Q.** And the “Ibuprofen solubility, Percentage” value ([1]; in PEG 400, 25 °C)?
**A.** Its value is 19%.

**Q.** What about the “Ibuprofen Solubility in Excipient” value ([1]; in PEG 400, 25 °C) of the same compound?
**A.** Its value is 190 mg/g.

**Q.** And the “Ibuprofen solubility, Percentage” value ([1]; in Transcutol, 25 °C)?
**A.** Its value is 30%.

**Q.** What about the “Ibuprofen Solubility in Excipient” value ([1]; in Transcutol, 25 °C) of the same compound?
**A.** The value was 300 mg/g.

**Q.** What about the “Ibuprofen solubility, Percentage” value ([1]; in glycerol, 25 °C) of the same compound?
**A.** Its value is 0.4%.

**Q.** And the “Ibuprofen Solubility in Excipient” value ([1]; in glycerol, 25 °C)?
**A.** Its value is 4 mg/g.

**Q.** And the “Ibuprofen solubility, Percentage” value ([1]; in isopropyl myristate, 25 °C)?
**A.** Its value is 20%.

**Q.** What about the “Ibuprofen Solubility in Excipient” value ([1]; in isopropyl myristate, 25 °C) of the same compound?
**A.** The value was 200 mg/g.

**Q.** And the “Ibuprofen solubility, Percentage” value ([1]; in mineral oil, 25 °C)?
**A.** Its value is 6%.

**Q.** What about the “Ibuprofen Solubility in Excipient” value ([1]; in mineral oil, 25 °C) of the same compound?
**A.** Its value is 60 mg/g.

**Q.** What about the “Ibuprofen solubility, Percentage” value [1, 4] of the same compound?
**A.** Its value is 18%.

**Q.** What about the “Ibuprofen Solubility in Excipient” value [1, 4] of the same compound?
**A.** The value was 180 mg/g.

**Q.** What about the “Ibuprofen solubility, Percentage” value [1, 5] of the same compound?
**A.** The value was 30%.

**Q.** And the “Ibuprofen Solubility in Excipient” value [1, 5]?
**A.** Its value is 300 mg/g.

**Q.** What about the aqueous solubility ([2]; pH 4.5) of the same compound?
**A.** The aqueous solubility was 0.084 µg/mL (≈ 0.407 µM).

**Q.** And the aqueous solubility ([2]; pH 5.54)?
**A.** The aqueous solubility was 0.685 µg/mL (≈ 3.32 µM).
